This assay concerns the target T1, Prostaglandin G/H synthase 2 (Homo sapiens, UniProt P35354).
T1 sequence (P35354 whole entry): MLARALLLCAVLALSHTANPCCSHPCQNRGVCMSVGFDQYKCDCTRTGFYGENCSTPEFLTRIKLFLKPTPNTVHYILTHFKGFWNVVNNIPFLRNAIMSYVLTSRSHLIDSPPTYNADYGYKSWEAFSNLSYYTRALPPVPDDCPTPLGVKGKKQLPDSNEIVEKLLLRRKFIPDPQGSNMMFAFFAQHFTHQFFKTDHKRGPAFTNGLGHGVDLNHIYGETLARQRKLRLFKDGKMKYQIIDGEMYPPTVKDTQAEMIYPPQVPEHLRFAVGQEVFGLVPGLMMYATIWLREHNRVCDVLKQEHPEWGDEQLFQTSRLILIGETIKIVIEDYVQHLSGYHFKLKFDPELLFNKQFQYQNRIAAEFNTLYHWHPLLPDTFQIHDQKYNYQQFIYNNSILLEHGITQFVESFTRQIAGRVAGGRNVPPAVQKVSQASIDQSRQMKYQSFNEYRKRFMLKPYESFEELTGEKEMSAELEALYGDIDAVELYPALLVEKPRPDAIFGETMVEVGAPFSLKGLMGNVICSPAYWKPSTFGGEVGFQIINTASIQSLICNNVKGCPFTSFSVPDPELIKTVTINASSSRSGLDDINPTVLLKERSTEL
The experiment in a line: Inhibition of human recombinant COX-2 using arachidonic acid as substrate preincubated for 5 mins followed by substrate addition measured after 5 mins by HPLC analysis.

In BindingDB's records for doi:10.1021/np500198g (University of Tuebingen, 2014) one finds IC50 data, which are given here for one molecule.

The structures appear in SMILES notation.

As usually defined, the IC50 is the point on the concentration scale where inhibition reaches its midpoint. As for `CC(C)=CCC[C@H](C(=O)O)[C@@H]1CC[C@]2(C)C3=C(CC[C@@]12C)[C@@]1(C)CC[C@@H](O)C(C)(C)[C@@H]1CC3`, the half-inhibitory concentration (IC50) was above 10 µM.
